Measurements: ChEMBL document CHEMBL5291721, “A preclinical secondary pharmacology resource illuminates target-adverse drug reaction associations of marketed drugs” (Nat Commun, 2023)

Legend:
[1] = molecular target: T1, Muscarinic acetylcholine receptor M1 (Homo sapiens, UniProt P11229); assay type: functional
T1 sequence (P11229 whole entry): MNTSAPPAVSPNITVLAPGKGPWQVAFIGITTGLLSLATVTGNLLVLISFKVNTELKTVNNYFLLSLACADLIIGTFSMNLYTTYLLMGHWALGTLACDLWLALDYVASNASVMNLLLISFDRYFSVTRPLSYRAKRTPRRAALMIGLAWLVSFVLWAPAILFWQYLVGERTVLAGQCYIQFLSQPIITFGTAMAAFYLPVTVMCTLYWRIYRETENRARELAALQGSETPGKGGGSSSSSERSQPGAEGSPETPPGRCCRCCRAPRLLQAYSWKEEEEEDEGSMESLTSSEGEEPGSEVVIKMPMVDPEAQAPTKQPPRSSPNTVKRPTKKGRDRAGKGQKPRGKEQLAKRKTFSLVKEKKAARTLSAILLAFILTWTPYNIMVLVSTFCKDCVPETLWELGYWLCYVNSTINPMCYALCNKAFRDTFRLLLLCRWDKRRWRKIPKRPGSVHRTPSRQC

[2] = molecular target: Sodium-dependent serotonin transporter (Homo sapiens, UniProt P31645)
[3] = molecular target: Delta-type opioid receptor (Homo sapiens, UniProt P41143)
[4] = molecular target: T2, Cholecystokinin receptor type A (Homo sapiens, UniProt P32238)
T2 sequence (P32238 whole entry): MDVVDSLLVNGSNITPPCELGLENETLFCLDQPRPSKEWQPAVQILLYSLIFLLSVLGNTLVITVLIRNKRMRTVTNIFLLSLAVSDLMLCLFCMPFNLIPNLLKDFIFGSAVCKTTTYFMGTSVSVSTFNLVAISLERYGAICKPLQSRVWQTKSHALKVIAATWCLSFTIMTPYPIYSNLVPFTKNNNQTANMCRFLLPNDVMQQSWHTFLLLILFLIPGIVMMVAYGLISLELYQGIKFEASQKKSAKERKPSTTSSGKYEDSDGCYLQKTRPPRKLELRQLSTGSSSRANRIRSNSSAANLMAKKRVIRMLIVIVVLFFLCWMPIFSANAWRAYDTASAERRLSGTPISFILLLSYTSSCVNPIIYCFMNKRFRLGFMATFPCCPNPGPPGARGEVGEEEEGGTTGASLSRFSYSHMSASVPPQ

Estrogen receptor = molecular target: T3, Estrogen receptor (Homo sapiens, UniProt P03372)
T3 sequence (P03372 whole entry): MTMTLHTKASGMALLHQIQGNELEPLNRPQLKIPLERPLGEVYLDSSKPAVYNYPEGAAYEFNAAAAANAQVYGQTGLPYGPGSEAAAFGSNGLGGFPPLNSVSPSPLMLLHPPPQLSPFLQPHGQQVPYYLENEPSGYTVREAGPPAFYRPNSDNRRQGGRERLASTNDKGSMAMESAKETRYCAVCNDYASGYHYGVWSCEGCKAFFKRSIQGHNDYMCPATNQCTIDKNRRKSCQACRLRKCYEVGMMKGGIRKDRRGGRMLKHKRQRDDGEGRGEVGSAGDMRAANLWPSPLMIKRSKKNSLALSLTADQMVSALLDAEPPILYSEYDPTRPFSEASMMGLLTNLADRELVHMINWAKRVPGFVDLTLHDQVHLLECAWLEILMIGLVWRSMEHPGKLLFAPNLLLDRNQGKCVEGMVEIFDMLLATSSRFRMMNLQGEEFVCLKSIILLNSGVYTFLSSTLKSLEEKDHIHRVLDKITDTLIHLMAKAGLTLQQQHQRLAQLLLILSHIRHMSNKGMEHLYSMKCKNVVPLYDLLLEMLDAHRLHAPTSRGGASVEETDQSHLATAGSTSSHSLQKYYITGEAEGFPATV

[5] = molecular target: T4, 5-hydroxytryptamine receptor 2C (Homo sapiens, UniProt P28335)
T4 sequence (P28335 whole entry): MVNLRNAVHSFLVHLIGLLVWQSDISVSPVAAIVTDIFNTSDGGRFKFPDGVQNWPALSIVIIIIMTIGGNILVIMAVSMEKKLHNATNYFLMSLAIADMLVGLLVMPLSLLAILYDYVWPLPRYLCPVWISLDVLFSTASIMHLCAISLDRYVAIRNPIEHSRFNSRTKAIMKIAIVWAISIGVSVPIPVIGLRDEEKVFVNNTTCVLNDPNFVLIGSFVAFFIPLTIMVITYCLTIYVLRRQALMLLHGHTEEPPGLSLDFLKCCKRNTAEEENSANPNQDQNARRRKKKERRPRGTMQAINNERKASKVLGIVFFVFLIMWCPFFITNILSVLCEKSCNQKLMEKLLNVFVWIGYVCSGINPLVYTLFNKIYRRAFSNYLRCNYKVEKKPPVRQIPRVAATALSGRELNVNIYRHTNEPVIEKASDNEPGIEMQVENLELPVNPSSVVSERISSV

Melanocortin receptor 4 = Melanocortin receptor 4 (Homo sapiens, UniProt P32245)
Adenosine receptor A3 = molecular target: T5, Adenosine receptor A3 (Homo sapiens, UniProt P0DMS8)
T5 sequence (P0DMS8 whole entry): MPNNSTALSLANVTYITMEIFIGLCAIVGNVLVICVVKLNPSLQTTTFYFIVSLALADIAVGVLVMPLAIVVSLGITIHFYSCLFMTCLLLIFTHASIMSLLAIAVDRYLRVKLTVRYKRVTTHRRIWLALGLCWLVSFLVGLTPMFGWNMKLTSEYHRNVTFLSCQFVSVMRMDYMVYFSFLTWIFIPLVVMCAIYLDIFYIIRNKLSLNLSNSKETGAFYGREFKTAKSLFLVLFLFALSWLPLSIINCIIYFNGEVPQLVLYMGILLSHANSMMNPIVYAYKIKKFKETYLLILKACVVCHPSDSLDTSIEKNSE

[6] = molecular target: 5-hydroxytryptamine receptor 2B (Homo sapiens, UniProt P41595); assay type: functional, cell-based
Cannabinoid receptor 1 = Cannabinoid receptor 1 (Homo sapiens, UniProt P21554); assay type: functional, cell-based
Also: assay procedure not described here.

Delta-type opioid receptor, sequence (P41143 whole entry): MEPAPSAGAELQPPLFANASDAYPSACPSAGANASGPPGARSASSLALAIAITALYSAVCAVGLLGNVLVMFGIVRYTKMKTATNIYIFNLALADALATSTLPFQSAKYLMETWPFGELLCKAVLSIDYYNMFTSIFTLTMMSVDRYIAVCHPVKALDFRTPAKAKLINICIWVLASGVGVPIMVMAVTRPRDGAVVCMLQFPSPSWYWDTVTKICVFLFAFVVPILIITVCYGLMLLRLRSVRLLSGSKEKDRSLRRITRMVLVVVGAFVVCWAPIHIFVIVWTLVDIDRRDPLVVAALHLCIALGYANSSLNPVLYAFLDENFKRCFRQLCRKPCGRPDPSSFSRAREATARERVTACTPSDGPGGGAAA
Cannabinoid receptor 1, sequence (P21554 whole entry): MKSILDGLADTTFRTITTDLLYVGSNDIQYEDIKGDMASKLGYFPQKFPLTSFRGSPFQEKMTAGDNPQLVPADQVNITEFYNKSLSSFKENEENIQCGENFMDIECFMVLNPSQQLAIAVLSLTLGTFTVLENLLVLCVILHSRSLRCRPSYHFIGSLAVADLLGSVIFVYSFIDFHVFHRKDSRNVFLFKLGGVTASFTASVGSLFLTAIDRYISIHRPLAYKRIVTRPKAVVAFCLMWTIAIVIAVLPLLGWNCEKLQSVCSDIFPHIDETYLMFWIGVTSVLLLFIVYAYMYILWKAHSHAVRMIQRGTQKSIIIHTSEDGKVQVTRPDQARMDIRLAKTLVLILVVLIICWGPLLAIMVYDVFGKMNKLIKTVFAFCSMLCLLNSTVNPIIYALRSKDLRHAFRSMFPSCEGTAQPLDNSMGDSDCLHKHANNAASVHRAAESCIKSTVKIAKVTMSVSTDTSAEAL
Melanocortin receptor 4, sequence (P32245 whole entry): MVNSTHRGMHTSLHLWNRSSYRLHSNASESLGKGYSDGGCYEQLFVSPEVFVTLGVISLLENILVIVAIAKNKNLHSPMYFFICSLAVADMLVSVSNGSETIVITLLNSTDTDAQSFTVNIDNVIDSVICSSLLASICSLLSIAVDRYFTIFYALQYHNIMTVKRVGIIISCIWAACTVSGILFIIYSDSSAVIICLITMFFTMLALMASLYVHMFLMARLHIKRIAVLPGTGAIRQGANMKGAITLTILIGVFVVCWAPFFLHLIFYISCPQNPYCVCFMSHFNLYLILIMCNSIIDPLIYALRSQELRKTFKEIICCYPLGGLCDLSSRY
5-hydroxytryptamine receptor 2B, sequence (P41595 whole entry): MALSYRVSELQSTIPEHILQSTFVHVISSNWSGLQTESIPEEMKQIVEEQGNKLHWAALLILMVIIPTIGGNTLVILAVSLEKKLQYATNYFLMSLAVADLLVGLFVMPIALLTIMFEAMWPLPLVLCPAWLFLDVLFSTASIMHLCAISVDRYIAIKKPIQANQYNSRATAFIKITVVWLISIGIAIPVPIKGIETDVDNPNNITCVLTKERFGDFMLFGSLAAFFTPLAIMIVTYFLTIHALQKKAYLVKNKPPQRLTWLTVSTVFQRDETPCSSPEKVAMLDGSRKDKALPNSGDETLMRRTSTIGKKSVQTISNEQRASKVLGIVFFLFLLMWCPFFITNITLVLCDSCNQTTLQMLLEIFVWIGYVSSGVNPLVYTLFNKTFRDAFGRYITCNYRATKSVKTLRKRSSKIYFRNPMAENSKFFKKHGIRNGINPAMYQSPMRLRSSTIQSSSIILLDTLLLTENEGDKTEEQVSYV
Sodium-dependent serotonin transporter, sequence (P31645 whole entry): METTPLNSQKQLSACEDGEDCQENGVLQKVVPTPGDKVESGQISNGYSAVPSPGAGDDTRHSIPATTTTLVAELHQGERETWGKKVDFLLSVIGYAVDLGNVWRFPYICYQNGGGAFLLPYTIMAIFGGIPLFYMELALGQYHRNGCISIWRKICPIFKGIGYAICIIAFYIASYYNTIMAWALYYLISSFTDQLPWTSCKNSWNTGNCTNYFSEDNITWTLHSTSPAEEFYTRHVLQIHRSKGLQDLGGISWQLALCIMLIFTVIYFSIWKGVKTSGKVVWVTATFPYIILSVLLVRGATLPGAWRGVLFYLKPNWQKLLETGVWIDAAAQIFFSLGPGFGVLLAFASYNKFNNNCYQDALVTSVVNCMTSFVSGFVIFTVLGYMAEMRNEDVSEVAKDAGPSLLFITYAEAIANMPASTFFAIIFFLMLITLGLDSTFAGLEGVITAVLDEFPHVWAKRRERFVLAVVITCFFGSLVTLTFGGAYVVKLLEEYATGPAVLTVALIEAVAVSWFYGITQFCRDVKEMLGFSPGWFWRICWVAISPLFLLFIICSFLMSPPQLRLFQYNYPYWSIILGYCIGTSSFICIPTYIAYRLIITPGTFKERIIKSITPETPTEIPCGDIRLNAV

Compound	AC50 [1] [µM]	AC50 [2] [µM]	AC50 [3] [µM]	AC50 [4] [µM]	AC50 (Estrogen receptor) [µM]	AC50 [5] [µM]	AC50 (Melanocortin receptor 4) [µM]	AC50 (Adenosine receptor A3) [µM]	AC50 [6] [µM]	AC50 (Cannabinoid receptor 1) [µM]
C[C@]12CC[C@H](O)CC1=CC[C@@H]1[C@@H]2CC[C@]2(C)C(c3cccnc3)=CC[C@@H]12 [ABIRATERONE]	> 10	> 30	> 30	> 30	> 30	> 30	> 30	> 30	> 10	–
CN(C)C(=O)Oc1cc(OC(=O)N(C)C)cc(C(O)CNC(C)(C)C)c1 (configuration not stated) [BAMBUTEROL]	–	–	–	> 30	> 30	–	–	> 30	–	–
C[C@H]1C[C@H]2[C@@H]3CCC4=CC(=O)C=C[C@]4(C)[C@@]3(Cl)[C@@H](O)C[C@]2(C)[C@@]1(O)C(=O)CO [BECLOMETHASONE]	–	–	> 30	> 30	> 30	> 30	> 30	> 30	–	–
NS(=O)(=O)c1cc(C2(O)NC(=O)c3ccccc32)ccc1Cl (configuration not stated) [CHLORTHALIDONE]	–	–	–	> 10	–	> 30	> 10	> 10	> 10	–
C[C@@H]1CCC[C@H](C)N1NC(=O)c1ccc(Cl)c(S(N)(=O)=O)c1 [CLOPAMIDE]	> 30	> 30	> 30	> 30	> 30	> 30	–	> 30	> 30	> 30
COc1ccc2c(c1)[C@]13CCCC[C@@H]1[C@H](C2)N(C)CC3 [DEXTROMETHORPHAN]	–	–	> 10	> 30	> 30	> 30	> 30	> 30	> 10	–
O=c1oc2ccccc2c(O)c1Cc1c(O)c2ccccc2oc1=O [DICUMAROL]	–	–	> 30	> 10	–	> 30	> 10	> 10	> 10	–
CCn1cc(C(=O)O)c(=O)c2cc(F)c(N3CCNCC3)nc21 [ENOXACIN]	–	–	> 10	> 30	> 30	> 10	> 30	> 30	> 10	–
O=C(O)CSCC(=O)NC1CCSC1=O (configuration not stated) [ERDOSTEINE]	> 30	> 30	> 30	> 30	–	> 30	–	> 30	> 30	> 30
COc1cccc(N(C)C(=S)Oc2ccc3c(c2)CCCC3)n1 [LIRANAFTATE]	> 30	> 30	> 30	> 30	> 30	> 30	–	> 30	> 30	> 30
C#C[C@]1(O)CC[C@H]2[C@@H]3CCc4cc(OC)ccc4[C@H]3CC[C@@]21C [MESTRANOL]	–	–	> 30	> 10	0.136	> 30	> 10	> 30	> 10	–
N=C(N)c1ccc2cc(OC(=O)c3ccc(N=C(N)N)cc3)ccc2c1 [NAFAMOSTAT]	8.7	8.2	–	> 30	–	> 30	–	21	29	> 30
CNC(=O)Oc1ccc2c(c1)[C@]1(C)CCN(C)[C@@H]1N2C [PHYSOSTIGMINE]	–	–	> 30	> 30	> 30	> 30	–	> 30	> 30	> 30
O=C(O)c1cc(O)c2c3nc4ccccc4oc-3cc(=O)c2n1 [PIRENOXINE]	6.7	> 30	2.2	5.1	–	2.3	–	> 30	> 30	> 30
NS(=O)(=O)c1cc(C(=O)O)cc(N2CCCC2)c1Oc1ccccc1 [PIRETANIDE]	> 30	0.92	> 30	> 30	> 30	> 30	–	> 30	> 30	> 30
CNCCCC1c2ccccc2C=Cc2ccccc21 [PROTRIPTYLINE]	–	–	> 30	> 10	> 10	–	> 10	> 10	3.8	–
CC(C)=CCOc1ccc(/C=C/C(=O)c2ccc(OCC=C(C)C)cc2OCC(=O)O)cc1 [SOFALCONE]	> 30	> 30	26	> 30	> 30	> 30	–	5.5	> 30	11
O=C(CCCN1CCC2(CC1)C(=O)NCN2c1ccccc1)c1ccc(F)cc1 [SPIPERONE]	> 30	0.0086	–	> 30	–	10.3	–	> 30	–	> 30
CCSc1ccc2c(c1)N(CCCN1CCN(C)CC1)c1ccccc1S2 [THIETHYLPERAZINE]	16	–	–	–	–	–	–	> 10	–	–
CN(C)c1cc(NC(=O)CNC(C)(C)C)c(O)c2c1C[C@H]1C[C@H]3[C@H](N(C)C)C(O)=C(C(N)=O)C(=O)[C@@]3(O)C(O)=C1C2=O [TIGECYCLINE]	27	> 30	> 30	> 30	> 30	> 30	> 30	26.9	> 30	–
OCCN1CCN(CC/C=C2/c3ccccc3Sc3ccc(Cl)cc32)CC1 [ZUCLOPENTHIXOL]	> 10	8.4	> 30	> 10	–	1	> 10	> 10	0.92	–
